# Residues, ends and D or L forms follow the SMILES beside them. *: point of attachment. Cbz = O=C(OCc1ccccc1)*
# Key:
# Cav3.2 channels [1] = experiment: Ubiquitination state of Cav3.2 channels in CAD cells with proteasomal inhibitor (western blot densitometry); assay type: cell-based; conditions: 5 μM MG132, CAD cells, mean±SEM
# Experimental: Human embryonic kidney tsA-201 cells were cultured as described previously (Altier et al., 2006). Cells were transfected with calcium phosphate and used for biochemical analysis 72 hrs post-transfection. Neuronal derived CAD cells were cultured as described previously (Altier et al., 2011). These cells were transfected with Lipofectamine 2000 (Invitrogen) and used for biochemical and electrophysiological experiments 48-72 hrs post-transfection. Both tsA-201 and CAD cells were preincubated with 5 μM MG132 (MG) or 100 μM Chloroquine (Chl) overnight.
# Cells were lysed in RIPA buffer (in mM; 50 Tris, 100 NaCl, 1% triton X-100, 1% NP-40, 0.2% SDS, 0.1% NaDeoxycholate, 20 NaF, 10 Na4P2O7 pyrophosphate, 10 EDTA+protease inhibitor cocktail, pH 7.5). A modified RIPA buffer (in mM; 50 Tris, 100 NaCl, 0.2% (v/v) triton X-100, 0.2% (v/v) NP-40, 10 EDTA+protease inhibitor cocktail, with or without 5 μM MG132 pH 7.5) was used to co-immunoprecipitate Cav3.2 channels with USP5 protein. Lysates from tsA-201, CAD cells and rat brain tissue were prepared by sonicating samples at 60% pulse for 10 seconds and by centrifugation at 13,000 rpm for 15 minutes at 4° C. […] Western blot quantification was performed using densitometry analysis (Quantity One-BioRad software). […]
# Cav3.2 channels [2] = experiment: Cav3.2 ubiquitination in cultured mouse DRG neurons (immunoprecipitation, anti-ubiquitin western blot); assay type: cell-based; conditions: 5 μM MG132 overnight
# CFA-injected mice = experiment: CFA-induced persistent inflammatory pain, mechanical hyperalgesia; conditions: acute delivery, 10.0 μg/i.t.
# Experimental: Mechanical hyperalgesia was measured using the digital plantar aesthesiometer (DPA, UgoBasile, Varese, Italy). […] Mice were allowed to acclimate for a period of at least 90 minutes. The DPA device was positioned beneath the animal, so that the filament was directly under the plantar surface of the ipsilateral hind paw. Each paw was tested three times per session.
# [3] = 10.0 μg/i.t.
# Source text: Injections were given to fully conscious mice using the method described by Hylden and Wilcox (Hylden & Wilcox, 1980). Animals were manually restrained, the dorsal fur of each mouse was shaved, the spinal column was arched, and a 30-gauge needle attached in a PE20 Polyethylene tube to a 25-μl Hamilton microsyringe (Hamilton, Birmingham, UK) was inserted into the subdural space between the L4 and L5 vertebrae. Correct i.t. positioning of the needle tip was confirmed by a characteristic tail-flick response of animal. Intrathecal injections of volumes between 2-10 μl were given over a period between 5-10 seconds.
compound,measurement,setting,value
CC(C)C[C@@H](C=O)NC(=O)[C@H](CC(C)C)NC(=O)[C@H](CC(C)C)NC(=O)OCc1ccccc1 [MG132] (Cbz-Leu-Leu-Leu-aldehyde),"ratio of ubiquitinated vs non-ubiquitinated channels (Ub-Cav3.2 channels/Cav3.2 channels), higher MW band (b)",Cav3.2 channels [1]; n=4,2.80±0.5
same,"ratio of ubiquitinated vs non-ubiquitinated channels (Ub-Cav3.2 channels/Cav3.2 channels), lower MW band (a)",Cav3.2 channels [1]; n=5,3.2±1.1
same,Cav3.2 ubiquitination signal,Cav3.2 channels [2],only from immunoprecipitates from cells treated with 5 μM MG132
COCC(=O)O[C@]1(CCN(C)CCCc2nc3ccccc3[nH]2)CCc2cc(F)ccc2[C@@H]1C(C)C [mibefradil],pain in the CFA model (mechanical withdrawal threshold),CFA-injected mice,significantly attenuate pain in the CFA model
CC(C)C[C@H](NC(=O)[C@H](CCCNC(=N)N)NC(=O)[C@H](CCCNC(=N)N)NC(=O)[C@H](CC(C)C)NC(=O)[C@H](CCCNC(=N)N)NC(=O)[C@H](CCCCN)NC(=O)[C@H](CCC(=O)O)NC(=O)[C@H](CCC(=O)O)NC(=O)[C@H](CCCNC(=N)N)NC(=O)[C@H](CCCNC(=N)N)NC(=O)[C@H](CCCNC(=N)N)NC(=O)[C@H](C)NC(=O)[C@H](CCC(=O)O)NC(=O)[C@H](CCCNC(=N)N)NC(=O)[C@H](CCCNC(=N)N)NC(=O)[C@H](CCCNC(=N)N)NC(=O)[C@H](CCC(N)=O)NC(=O)[C@H](CCCNC(=N)N)NC(=O)[C@H](CCCNC(=N)N)NC(=O)[C@H](CCCCN)NC(=O)[C@H](CCCCN)NC(=O)[C@H](CCCNC(=N)N)NC(=O)CNC(=O)[C@@H](N)Cc1ccc(O)cc1)C(=O)N[C@@H](CCC(=O)O)C(=O)N[C@@H](CCCNC(=N)N)C(=O)N[C@@H](CCCNC(=N)N)C(=O)N[C@@H](CCCNC(=N)N)C(=O)N[C@@H](CCCNC(=N)N)C(=O)N[C@@H](CCCCN)C(=O)N[C@@H](C)C(=O)N[C@@H](CCC(N)=O)C(=O)O [Tat-3.2-III-IV linker peptide] (H-YGRKKRRQRRREARRREEKRLRRLERRRRKAQ-OH),abnormal behavior,[3]; 2.5 μg/μl over 10 seconds,no abnormal behavior was observed
same,mice that developed shaking behavior,[3]; 5 μg/μl over 5 seconds,3 out of 10
same,time to termination of shaking behavior after injection,[3]; 5 μg/μl over 5 seconds,≤ 15 min

# From patent US9993522B2, “Treatment of pain by inhibition of USP5 de-ubiquitinase” (UTI LIMITED PARTNERSHIP, priority 2012, dated 2018)
